Results: patent publication US5532228A, “Side-chain homologous vitamin D derivatives, process for their production, pharmaceutical preparations containing these derivatives and their use as pharmaceutical agents” (Schering Aktiengesellschaft, priority 1990, dated 1996)
Like-named read-outs stand apart in the source and are kept apart here.

Key:
[1] = system: Keratinocytes of newborn mice; assay: antiproliferative test: 3H-thymidine incorporation in DNA of keratinocytes; type: cell-based, mouse (neonatal NMRI mice); settings: mouse keratinocytes, 24 hours with test substance in serum-free medium at 32.5° C., 4 hours 3H-methylthymidine, read-out: IC50 of inhibition of 3H-thymidine incorporation in DNA
Method: Keratinocytes of newborn mice are prepared and cultivated in a modification of the method of Yuspa, S. and Harris, C.
Neonatal NMRI mice of both sexes are killed by decapitation, the skin is removed, washed in an antibiotic-antimycotic solution and, with the dermal side facing down, incubated overnight at 4° C. in dispase II solution (1.2 U/ml in tissue culture medium M199 +25 mmol/l HEPES+15% fetal calf serum (FCS)+50 U/ml of penicillin/streptomycin (P/S) (preparation medium, PM). The epidermis is removed and a single-cell suspension is produced by trypsinization. After centrifuging, the cell sediment is resuspended, the number of living, small, round cells is determined after trypan blue staining and the cells are sown in a density of 4×10^5 cells/cm^2 in Primaria 24-hole plates in tissue culture medium (M199+15% FCS+50 U/ml of P/S). […] Then, 0.4 microcuries/50 microliters of ^3 H-methylthymidine (40 Ci/mmol) is added. After 4 hours, the medium is suctioned off and the reaction is ended by adding 500 microliters of ice-cold 10% trichloroacetic acid (TCA). The cells are washed with TCA and PBS, lysed by incubation in a proteinase K-solution (10 mmol/l of tris-HCl, 10 mmol/l of EDTA, 10 mmol/l of NaCl, 0.2% triton-X 100, pH 8.0, 50 micrograms/ml of […]) and the lysate is clarified by centrifuging. In the supernatant fluid, the radioactivity is determined by scintillation photometry and, after specific staining of the DNA with diamidinophenylindole (DAPI), the DNA concentration is determined by fluorescence photometry.

[2] = system: HL 60 cells (human leukemia cells, promyelocytic cell line); assay: HL 60 differentiation induction into macrophages (NBT reduction to formazan); type: cell-based; settings: for EC50: Homo sapiens, HL-60, 96 hours incubation, NBT-TPA, formazan at 650 nm, read-out: ED50 of differentiation induction of HL 60 cells into macrophages (formazan formed); for differentiation-stimulating effect compared with calcitriol: HL 60 cells, versus calcitriol
Method: To quantify the differentiation-stimulating effect of calcitriol analogs, the test indicated below was performed:
HL 60 cells are cultivated in tissue culture medium (RPM1--10% fetal calf serum) at 37° C. in an atmosphere of 5% CO2 in air.
The test substances are-dissolved in ethanol and diluted with tissue culture medium without phenol red to the desired concentration. The dilution stages are mixed with the cell suspension in a ratio of 1:10 and 100 microliters each of this cell suspension mixed with substance is pipetted into an indentation of a 96-hole plate. As a control, a cell suspension is mixed analogously with the solvent.
After incubation for 96 hours at 37° C. in 5% CO2 in air, 100 microliters of an NBT-TPA solution (nitro blue tetrazolium (NBT), final concentration in the batch 1 mg/ml, tetradecanoyl-phorbol myristate-13-acetate (TPA), final concentration in the batch 2×10^-7 mol/l) is pipetted into each indentation of the 96-hole plate into the cell suspension.
By incubation for 2 hours at 37° C. and 5% CO2 in air, the NBT is reduced to insoluble formazan because of the intracellular oxygen radical release, stimulated by TPA, in the cells differentiated into macrophages.
To end the reaction, the indentations of the 96-hole plate are drained and the adhering cells are fixed by adding methanol and dried after fixation.
To dissolve the intracellular formazan crystals formed, 100 microliters of potassium hydroxide (2 val/l) and 100 microliters of dimethyl sulfoxide are pipetted into each indentation and are exposed to ultrasonic waves for 1 minute. The concentration of formazan is measured by spectrophotometry at 650 nm.
The concentration of formazan formed is regarded as a measurement for the differentiation induction of the HL 60 cells into macrophages. The relative effectiveness of the test substance results from the quotient of ED50 test substance/ED50 calcitriol.

`C=C1/C(=C\C=C2/CCC[C@]3(C)[C@@H]([C@H](C)C/C=C/C(O)CC(C)C)CC[C@@H]23)C[C@@H](O)C[C@@H]1O` (single isomer, unassigned) [compound A] showed an IC50 [1] of 10 nM.

`C=C1/C(=C\C=C2/CCC[C@]3(C)[C@@H]([C@H](C)C/C=C/C(O)CC(C)C)CC[C@@H]23)C[C@@H](O)C[C@@H]1O` (single isomer, unassigned) [compound B] was tested, and the IC50 [1] was 3.2 nM.

Compound `C=C1/C(=C\C=C2/CCC[C@]3(C)[C@@H]([C@H](C)CCCC(C)(C)O)CC[C@@H]23)C[C@@H](O)C[C@@H]1O` [calcitriol, lalpha,25-dihydroxycholecalciferol, reference compound] has an IC50 ([1]; Keratinocyte) of 2 nM and an EC50 [2] of 1.8 nM.

In the case of `C=C1/C(=C\C=C2/CCC[C@]3(C)[C@@H]([C@H](C)C/C=C/[C@H](O)CC4CC4)CC[C@@H]23)C[C@@H](O)C[C@@H]1O` [compound C, 26,27-cyclo-24a,24b-dihomo-9,10-secocholesta-5Z,7E,10(19),23E-tetraene-1(S),3(R),24a(R)-triol], the “differentiation-stimulating effect compared with calcitriol” value [2] is reported as “practically do not differ” and the EC50 [2] is reported as 2.2 nM.

In the case of `C=C1/C(=C\C=C2/CCC[C@]3(C)[C@@H]([C@H](C)C/C=C/[C@@H](O)CC4CC4)CC[C@@H]23)C[C@@H](O)C[C@@H]1O` [compound D, 26,27-cyclo-24a,24b-dihomo-9,10-secocholesta-5Z,7E,10(19),23E-tetraene-1(S),3(R),24a(S)-triol], the “differentiation-stimulating effect compared with calcitriol” value [2] is reported as “practically do not differ” and the EC50 [2] is reported as 2.5 nM.
